Data set [1] has as its system S. aureus ATCC 29213. As to the kind of experiment: MIC test, single strain S. aureus ATCC 29213. Type of data set: cell-based. The settings on record: for MIC: Staphylococcus aureus. As to the method:
(§1) MIC test were performed according to standard methodology: M7-A6-“Methods for Dilution Antimicrobial Susceptibility Tests for Bacteria That Grow Aerobically”; Approved Standard, Sixth Edition Clinical and Laboratory Standards Institute 2005 (CLSI/formerly NCCLS).
(§2) Table II lists the results of 6 different compounds according to Formula (I) on single strains of S. aureus as MIC values expressed in micrograms per milliliter.
(§3) Table IV lists additional MIC data on single strains of S. aureus as MIC values expressed in micrograms per milliliter. Again BAS 00160352 (NewCo003) is tested, next to its monochloric pendant (NewCo0030) and several of the new compounds of Table I. Some of the experiments were carried out in duplicate. Strains TTC03.0236 and TTC03.0239 are two MRSA strains obtained from the Utrecht University Medical Centre (UMC 01-8756/140 and UMC 03-543155, respectively). Several of the new compounds of Table I appear to be at least as active as NewCo003.

In data set [2] the test system is S. aureus MW2. Put plainly: MIC test, single strain S. aureus MW2. The settings on record: for MIC: Staphylococcus aureus, MW2, Table II; for MIC S. aureus MW2: Table II. Type of data set: cell-based. As to the method:
as §1, §2

The subject of data set [3] is S. aureus N315. Put plainly: MIC test, single strain S. aureus N315. It counts as cell-based. The settings on record: for MIC: Staphylococcus aureus, N315, Table II; for MIC S. aureus N315: Table II. As to the method:
as §1, §2

In data set [4] the test system is S. aureus strains. As to the kind of experiment: MIC test on multiple strains of S. aureus. Type of data set: cell-based. The settings on record: for Range MIC (highest): highest value found; for Range MIC (lowest): lowest value found. The protocol: as §1
In data set [5] the test system is MRSA 2141. Put plainly: Local thigh muscle infection with MRSA 2141 in the mouse, CFU outgrowth. It counts as in vivo. To be noted: for Reduction of MRSA 2141 CFU in thigh muscle: 24 hours after dosing, vs vehicle. As to the method: The purpose of this study was to investigate the antibiotic efficacy of different doses of compound BAS00160352 (NewCo003) against a local infection with MRSA 2141 in the mouse. Thirty mice were treated intravenously with 0.05, 0.5 or 5.0 mg/kg body weight, respectively. Outgrowth of the infection was used to establish drug efficacy.
For each administered dose the appropriate stock solution was made as a 1 ml aliquot of the test substance in the vehicle (DMSO). The stock solutions were stored at 2-8° C. for 16 hours.
(§4) The test substances were administered as a solution in dimethylsulfoxide (DMSO). The test substance was administered as 20 μl injections per mouse at all dose levels. Vancomycin was used as positive control and injected intravenously as a 10 mg/ml solution in DMSO (20 μl per mouse). Fresh dilutions of the test substance in vehicle were provided, stored at 2-8° C., and used within 18 hours after preparation. Shortly before injection the test substance was warmed to room temperature.
The mice were injected i.m. with 22E05 MRSA 2141 bacteria, strain 2141 in the right thigh muscle, followed one day later by an i.v. injection of the test compound, vancomycin or vehicle in the tail vein. 24 hours later mice were sacrificed, blood was collected by heart puncture and the right thigh muscle was removed. Plasma was prepared from blood samples and stored at −80°±10° C. for possible future analysis. Thigh muscles were weighted and homogenized using an Ultra-Turrax® and dilutions of the homogenate were prepared in saline. Limiting dilutions were plated onto agar plates and two days later the number of MRSA 2141 CFU were determined for each individual mouse as an indication of bactericidal activity of the compound. Additionally, tests were performed to determine if the bacteria used are still oxacillin resistant Staphylococcus aureus. This was done before injection and on pooled thigh muscle isolates per group. […] In vivo antibiotic activity is determined by a CFU reduction of >90% (1 log reduction) in comparison to the negative control (vehicle only). […]

Data set [6] is described as follows: Observation for adverse side effects after i.v. injection in infected mice. Type of data set: in vivo. The settings on record: mouse, i.v., 0.05, 0.5 or 5.0 mg/kg in DMSO. The protocol:
as §4
The mice were injected i.m. with 22E05 MRSA 2141 bacteria, strain 2141 in the right thigh muscle, followed one day later by an i.v. injection of the test compound, vancomycin or vehicle in the tail vein. 24 hours later mice were sacrificed, blood was collected by heart puncture and the right thigh muscle was removed. Plasma was prepared from blood samples and stored at −80°±10° C. for possible future analysis. Thigh muscles were weighted and homogenized using an Ultra-Turrax® and dilutions of the homogenate were prepared in saline. Limiting dilutions were plated onto agar plates and two days later the number of MRSA 2141 CFU were determined for each individual mouse as an indication of bactericidal activity of the compound. […] In vivo antibiotic activity is determined by a CFU reduction of >90% (1 log reduction) in comparison to the negative control (vehicle only).

The subject of data set [7] is S. aureus TTC03.0236. Put plainly: MIC test, single strain S. aureus TTC03.0236 (MRSA). Type of data set: cell-based. The settings on record: Table IV, MRSA strain UMC 01-8756/140, some in duplicate. As to the method: as §1, §3
The test system of data set [8] is S. aureus TTC03.0239. As to the kind of experiment: MIC test, single strain S. aureus TTC03.0239 (MRSA). It counts as cell-based. To be noted: Table IV, MRSA strain UMC 03-543155, some in duplicate. The protocol:
as §1, §3

Where [9] appears, read: ATCC29213, Table II, single strain, read-out: MIC S. aureus ATCC 29213.
Where [10] appears, read: Staphylococcus aureus, 60 tested S. aureus strains, read-out: MIC 50.
Where [11] appears, read: Staphylococcus aureus, 60 tested S. aureus strains, read-out: MIC 90.

The text below walks through data of US7964625B2, “Antibiotics comprising bis(1-aryl-5-tetrazoly1)methane derivatives” (Nederlandse Organisatie Voor …, priority 2005, dated 2011).

SMILES strings stand for the structures. Values after ≈ are worked out from the molar mass of the structure shown. Where two headings read alike, the source gives them in different places.

On to `Cc1ccccc1-n1nnnc1C(Cl)(Cl)c1nnnn1-c1ccccc1C` [NewCo003, Bis-(1-o-tolyl-5-tetrazolyl)-dichloromethane], for which the MIC in data set [1] (setting [9]) came to 0.06 µg/mL (≈ 0.15 µM); in data set [1] (ATCC29213, Table IV, some in duplicate, read-out: MIC S. aureus ATCC 29213), 0.19 µg/mL (≈ 0.474 µM); in data set [2], 0.06 µg/mL (≈ 0.15 µM); in data set [3] it was 0.125 µg/mL (≈ 0.312 µM). The “MIC S. aureus ATCC 29213” value in data set [1] (Table IV, some in duplicate) is reported as 0.1 micrograms per milliliter. Besides, the “Range MIC (highest)” value in data set [4] (60 tested S. aureus strains) came out at 0.5 microgram/milliliter. Also, the “Range MIC (lowest)” value in data set [4] (60 tested S. aureus strains) was 0.03 microgram/milliliter. Besides, the MIC50 in data set [4] (setting [10]) was determined as 0.06 µg/mL (≈ 0.15 µM). Further, the MIC90 in data set [4] (setting [11]) amounted to 0.12 µg/mL (≈ 0.299 µM). The “Trend of dose-dependent efficacy” value in data set [5] (i.v., 0.05 to 5.0 mg/kg) is “no significant trend of dose-dependent efficacy was observed”. Also, the “Reduction of MRSA 2141 CFU in thigh muscle” value in data set [5] (single i.v. dose 0.05, 0.5 or 5.0 mg/kg one day after infection) is “Approximately 2 Log reduction”. Besides, in data set [6], the “Signs of adverse side effects during observation after injection” value is listed as “no signs of adverse side effects were observed”.

In the case of `ClC(Cl)(c1nnnn1-c1ccccc1)c1nnnn1-c1ccccc1` [NewCo004, Bis-(1-benzene-5-tetrazolyl)-dichloromethane], the “MIC S. aureus ATCC 29213” value in data set [1] (Table II, single strain) was 1 micrograms per milliliter. The “MIC S. aureus MW2” value in data set [2] is 1 micrograms per milliliter. Besides, in data set [3], the “MIC S. aureus N315” value was 0.25 micrograms per milliliter. In addition, in data set [4] (60 tested S. aureus strains), the “MIC50” value amounted to 1 microgram/milliliter, the “MIC90” value was 2 microgram/milliliter, the “Range MIC (highest)” value was 4 microgram/milliliter and the “Range MIC (lowest)” value was 0.25 microgram/milliliter.

For the compound `Clc1ccc(-n2nnnc2C(Cl)(Cl)c2nnnn2-c2ccc(Cl)cc2)cc1` [NewCo001, Bis-(1-p-chlorobenzen-5-tetrazolyl)-dichloromethane], in data set [1] (Table II, single strain), the “MIC S. aureus ATCC 29213” value came out at 16 micrograms per milliliter. Besides, the “MIC S. aureus MW2” value in data set [2] is given as 32 micrograms per milliliter. Besides, in data set [3], the “MIC S. aureus N315” value was 2 micrograms per milliliter. In data set [4] (60 tested S. aureus strains), the “MIC50” value was found to be 4 microgram/milliliter, the “MIC90” value is given as 16 microgram/milliliter, the “Range MIC (highest)” value was more than 32 microgram/milliliter and the “Range MIC (lowest)” value stood at 1 microgram/milliliter.

Consider `CN[C@H](CC(C)C)C(=O)N[C@H]1C(=O)N[C@@H](CC(N)=O)C(=O)N[C@H]2C(=O)N[C@H]3C(=O)N[C@H](C(=O)N[C@H](C(=O)O)c4cc(O)cc(O)c4-c4cc3ccc4O)[C@H](O)c3ccc(c(Cl)c3)Oc3cc2cc(c3O[C@@H]2O[C@H](CO)[C@@H](O)[C@H](O)[C@H]2O[C@H]2C[C@](C)(N)[C@H](O)[C@H](C)O2)Oc2ccc(cc2Cl)[C@H]1O` [vancomycin, reference compound], for which, in data set [1] (ATCC29213, read-out: MIC S. aureus ATCC 29213, Table IV, some in duplicate), the MIC turned out to be 1.56 µg/mL (≈ 1.08 µM). The “MIC S. aureus ATCC 29213” value in data set [1] (Table IV, some in duplicate, listed as vancomycine) is recorded as 0.78 micrograms per milliliter. Further, in data set [4] (60 tested S. aureus strains), the “Range MIC (highest)” value was found to be 4 microgram/milliliter and the “Range MIC (lowest)” value is 0.12 microgram/milliliter. For the same compound, in data set [4] (Staphylococcus aureus), the MIC50 was 0.5 µg/mL (≈ 0.345 µM) and the MIC90 turned out to be 1 µg/mL (≈ 0.69 µM). Also, in data set [5] (positive control, single i.v. dose 10 mg/kg), the “Reduction of MRSA 2141 CFU in thigh muscle” value is “Over 1 Log reduction”.

Take `COc1ccccc1-n1nnnc1C(Cl)(Cl)c1nnnn1-c1ccccc1OC` [NewCo006, Bis-(1-o-methoxybenzene-5-tetrazolyl)-dichloromethane]: in data set [1] (Table II, single strain), the “MIC S. aureus ATCC 29213” value worked out at 4 micrograms per milliliter.

Turning to `COc1ccc(Cl)cc1-n1nnnc1C(Cl)(Cl)c1nnnn1-c1cc(Cl)ccc1OC` [NewCo0022], the “MIC S. aureus ATCC 29213” value in data set [1] (Table IV, some in duplicate) was “≦0.05 micrograms per milliliter”. Besides, the “MIC S. aureus TTC03.0236” value in data set [7] is reported as 0.1 micrograms per milliliter. In addition, in data set [8], the “MIC S. aureus TTC03.0239” value is listed as 0.19 micrograms per milliliter.

For the compound `COc1ccccc1-n1nnnc1C(Cl)(Cl)c1nnnn1-c1ccccc1OC` [NewCo007, Bis-(1-o-methoxybenzene-5-tetrazolyl)-dichloromethane], the “MIC S. aureus ATCC 29213” value in data set [1] (Table IV, some in duplicate) turned out to be 1.56 micrograms per milliliter. Further, the “MIC S. aureus TTC03.0236” value in data set [7] is reported as 1.56 micrograms per milliliter. For the same compound, the “MIC S. aureus TTC03.0239” value in data set [8] came out at 1.56 micrograms per milliliter.

As to `Clc1cccc(-n2nnnc2C(Cl)(Cl)c2nnnn2-c2cccc(Cl)c2Cl)c1Cl` [NewCo0023, Bis-(1-o,m-dichlorobenzene-5-tetrazolyl)-dichloromethane], the “MIC S. aureus ATCC 29213” value in data set [1] (Table IV, some in duplicate) is reported as 0.19 micrograms per milliliter. Further, the “MIC S. aureus TTC03.0236” value in data set [7] worked out at 0.19 micrograms per milliliter. For the same compound, the “MIC S. aureus TTC03.0239” value in data set [8] was found to be 0.39 micrograms per milliliter.

For the compound `Fc1ccccc1-n1nnnc1C(Cl)(Cl)c1nnnn1-c1ccccc1F` [NewCo0018, Bis-(1-o-fluorobenzene-5-tetrazolyl)-dichloromethane], the “MIC S. aureus ATCC 29213” value in data set [1] (Table IV, some in duplicate) was 1.56 micrograms per milliliter. For the same compound, the “MIC S. aureus TTC03.0236” value in data set [7] was 0.78 micrograms per milliliter.

As to `Cc1ccc(-n2nnnc2C(Cl)c2nnnn2-c2ccc(C)cc2)cc1` [NewCo005, Bis-(1-p-tolyl-5-tetrazolyl)-chloromethane], the MIC in data set [1] (setting [9]) stood at 4 µg/mL (≈ 10.9 µM).

`COc1ccc(-n2nnnc2C(Cl)(Cl)c2nnnn2-c2ccc(OC)c(Cl)c2)cc1Cl` [NewCo0021, Bis-(1-m-chloro-p-methoxybenzene-5-tetrazolyl)-dichloromethane]: in data set [1] (Table IV, some in duplicate), the “MIC S. aureus ATCC 29213” value came to 1.56 micrograms per milliliter. Further, the “MIC S. aureus TTC03.0236” value in data set [7] is given as 0.78 micrograms per milliliter. In addition, the “MIC S. aureus TTC03.0239” value in data set [8] is given as 1.56 micrograms per milliliter.

With `Cc1ccc(-n2nnnc2C(Cl)(Cl)c2nnnn2-c2ccc(C)cc2)cc1` [NewCo002, Bis-(1-p-tolyl-5-tetrazolyl)-dichloromethane], the minimal inhibitory concentration (MIC) is more than 32 µg/mL in data set [1] (setting [9]), more than 32 µg/mL in data set [2] and 4 µg/mL (≈ 9.97 µM) in data set [3]. In data set [4] (60 tested S. aureus strains), the “Range MIC (highest)” value was more than 32 microgram/milliliter. Besides, the “Range MIC (lowest)” value in data set [4] (60 tested S. aureus strains) is recorded as 0.5 microgram/milliliter. Further, the MIC50 in data set [4] (setting [10]) was determined as 32 µg/mL (≈ 79.7 µM). Further, the MIC90 in data set [4] (setting [11]) is more than 32 µg/mL.
